Laboratory results: patent publication US9273063B2, “Method for preparing a rifaximin product” (Salix Pharmaceuticals, Inc., priority 2007, dated 2016)

Legend:
[1] = Water solubility in dissolution tester (distilled water, 37° C., 100 rpm, spectrophotometric analysis); assay type: physicochemical; details: 37° C.±0.5° C.
Procedure: Moreover, with regard to water solubility, after conditioning a dissolution tester (Pharma Test Type PTW S III s/n 5390) using distilled water at a temperature of 37° C.±0.5° C. at a speed of 100 rpm, four dissolutions were carried out, in each of which the first three vessels of the dissolution tester were used for the substance in crystalline form and the last three for the substance in amorphous form.
10 ml of the solute were withdrawn from each vessel after 15 minutes of stirring; the withdrawn samples were filtered with 0.45 μm filters and subjected to spectophotometric analysis, repeating the operation after 30 and 60 minutes.

[2] = Dissolution in ethanol, amorphous vs crystalline form; assay type: physicochemical; details: without stirring
Procedure: The dissolution profile of the substance in amorphous form was also determined, and compared with that of the substance in crystalline form.

| SMILES | dissolved percentage compared with that of the substance in crystalline form [1] | dissolution behaviour in ethanol [2] | concentration of dissolved substance relative to that of the substance in amorphous form ([1]; after one hour of dissolution) |
| --- | --- | --- | --- |
| CO[C@H]1/C=C/O[C@@]2(C)Oc3c(C)c(O)c4c(O)c(c5c(nc6cc(C)ccn65)c4c3C2=O)NC(=O)/C(C)=C\C=C\[C@H](C)[C@H](O)[C@@H](C)[C@@H](O)[C@@H](C)[C@H](OC(C)=O)[C@@H]1C [amorphous form, Rifaximin] | one order of magnitude greater | easily dissolves in ethanol even without stirring | – |
| CO[C@H]1/C=C/O[C@@]2(C)Oc3c(C)c(O)c4c(O)c(c5c(nc6cc(C)ccn65)c4c3C2=O)NC(=O)/C(C)=C\C=C\[C@H](C)[C@H](O)[C@@H](C)[C@@H](O)[C@@H](C)[C@H](OC(C)=O)[C@@H]1C [crystalline form, Rifaximin] | – | less wettable | about 7% |
